Test results from patent US5622947A, “Benzoheterocyclic compounds and vasopressin antagonist and oxytocin antagonist compositions containing a benzoheterocyclic compound” (Otsuka Pharmaceutical Co., Ltd., priority 1992, dated 1997).
Structures can show the parent of a compound that is named as a salt.

Key:
[1] = Anti-antiduretic water diuretic activity in vivo; conditions: oral, male SD-rats, first 2 hours, vs control group; read-out: ED3 (oral dose required to increase the amount of urine excreted for the first 2 hours)
Method: Test-4: Anti-antiduretic water diuretic/activity in vivo
The test compound of the present invention was dissolved in polyethylene glycol 400 or water or suspended in 5% gum arabic aqueous solution, and the mixture was orally administered by force to male SD-rats (body weight: 300 to 400 g) under untreated and unrestrained. After administration the rats were kept in a metabolism cage and the amount of urine spontaneously excreted by the rats was measured at 2 hours' interval, during which the rats could freely be given feed and water.
In the cotrol group, a solvent was administered instead of a test compound solution (or suspension).
The test results are expressed as ED3, which is the oral dose of the test compound which is required to increase the amount of the urine excreted from the rat in the test compound-treated group for the first 2 hours by time based on the amount of urine excreted from the rat for the first 2 hours in the control group.

[2] = tested on: increase in the diastolic pressure caused by vasopressin; experiment: Vasopressin antagonistic activity in vivo; conditions: Rattus norvegicus; oral, awake male SD-rats, vasopressin 30 mU/kg i.v.; read-out: ID50 (oral dose required to achieve 50% inhibitory effect on increase in diastolic pressure)
Method: Test-3: Vasopressin antagonistic activity in vivo
In order to test the vasopressin antagonistic activity of the compound of the present invention when admistered orally to rats under awaking, the following experiment was conducted. Cannulas were inserted into the aorta abdominalis and the carotid arteries of male SD-rats (body weight: 300-450 g) under pentobarbital-anesthetization. A few days thereafter, vasopressin (30 mU/kg) was administered intravenously to the rats under awaking with measuring the blood pressure at the cannula inserted into the arorta abdominalis by a piezo-electric transducer. The test compound was dissolved in polyethylene glycol or water, or suspended in 5% gum arabic solution, and orally administered by force to the rats.
The increase in the diastolic pressure of the rat was periodically mesured at 30 minutes' interval after the administration of vasopressin for 8 hours. The rate of inhibitory effect (%) of the test compound on the increase in the diastolic pressure caused by vasopressin (30 mU/kg) was calculated based on the increase in the diastolic pressure when vasopressin (30 mU/kg) was intravenously administered without a test compound.
The test result is expressed as ID50 value, which is the oral dose of the test compound required to achieve the inhibitory effect in the rate of 50% and is shown in Table 158 as follows: […]

[3] = biological target: T1, V1 Recepter (rat liver plasma membrane preparations) (Rattus norvegicus, UniProt P30560); experiment: V1 Recepter binding assay; conditions: [3H]-Arg-vasopressin 2×10^-10 M, 37° C., 10 minutes, pH 8.0, rat liver plasma membrane
T1 construct: rat liver plasma membrane preparations; from tissue; host or cells: rat liver plasma membranes
T1 sequence (P30560 whole entry): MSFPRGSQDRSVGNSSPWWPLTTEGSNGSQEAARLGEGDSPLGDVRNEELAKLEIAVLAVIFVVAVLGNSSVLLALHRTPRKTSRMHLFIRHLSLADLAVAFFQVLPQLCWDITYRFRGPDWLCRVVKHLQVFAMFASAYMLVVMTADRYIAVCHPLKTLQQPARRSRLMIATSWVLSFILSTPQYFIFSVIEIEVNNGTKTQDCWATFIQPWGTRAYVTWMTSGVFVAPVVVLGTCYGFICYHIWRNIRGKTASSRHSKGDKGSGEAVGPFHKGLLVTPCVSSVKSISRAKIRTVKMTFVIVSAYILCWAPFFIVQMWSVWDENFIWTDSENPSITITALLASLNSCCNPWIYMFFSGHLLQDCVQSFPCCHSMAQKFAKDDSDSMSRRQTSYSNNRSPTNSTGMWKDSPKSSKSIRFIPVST
Method in brief: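 Rat liver plasma membranes incubated with [3H]-Arg-vasopressin (2×10^-10 M) and compound (10^-8 to 10^-4 M) for 10 min at 37° C in Tris-HCl pH 8.0 with MgCl2, EDTA, BSA. Bound label separated by glass-fibre filtration, scintillation counted; nonspecific binding with 10^-6 M vasopressin; IC50 reported.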

[4] = biological target: T2, V2 Recepter (rat kidney plasma membrane preparations) (Rattus norvegicus, UniProt Q00788); experiment: V2 Recepter binding assay; conditions: [3H]-Arg-vasopressin 4×10^-10 M, 4° C., pH 8.0, rat kidney plasma membrane
T2 construct: rat kidney plasma membrane preparations; from tissue; host or cells: rat kidney plasma membranes
T2 sequence (Q00788 whole entry): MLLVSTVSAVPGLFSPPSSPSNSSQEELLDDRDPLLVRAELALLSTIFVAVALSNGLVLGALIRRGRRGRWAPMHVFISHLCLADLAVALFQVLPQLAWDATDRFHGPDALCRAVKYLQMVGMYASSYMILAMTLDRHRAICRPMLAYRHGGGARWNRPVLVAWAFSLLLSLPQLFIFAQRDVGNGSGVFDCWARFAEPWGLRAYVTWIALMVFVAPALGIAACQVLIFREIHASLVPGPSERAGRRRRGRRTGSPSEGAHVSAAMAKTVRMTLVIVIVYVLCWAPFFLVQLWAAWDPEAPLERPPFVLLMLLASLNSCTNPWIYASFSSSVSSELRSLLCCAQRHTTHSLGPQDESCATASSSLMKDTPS
Method in brief: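 Rat kidney plasma membranes incubated with [^3H]-Arg-vasopressin (4×10^-10 M) and test compound (10^-10 to 10^-5 M) for 3 h at 4 °C in 100 mM Tris-HCl pH 8.0 with 5 mM MgCl2, 1 mM EDTA, 0.1% BSA. Bound label by filtration and scintillation counting; nonspecific binding with 10^-6 M vasopressin; IC50 reported.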

[5] = biological target: T3, Oxytocin receptor (uterin muscle membrane preparation) (Rattus norvegicus, UniProt P70536); experiment: Oxytocin receptor binding assay; conditions: [3H]-oxytocin 10^-9 M, 25°, one hour, pH 8.0, uterin muscle membrane, DES-treated
T3 construct: was homogenized, which was used as a membrane; from tissue; host or cells: uterine muscle membranes from diethylstilbestrol-treated animals
T3 sequence (P70536 1-388): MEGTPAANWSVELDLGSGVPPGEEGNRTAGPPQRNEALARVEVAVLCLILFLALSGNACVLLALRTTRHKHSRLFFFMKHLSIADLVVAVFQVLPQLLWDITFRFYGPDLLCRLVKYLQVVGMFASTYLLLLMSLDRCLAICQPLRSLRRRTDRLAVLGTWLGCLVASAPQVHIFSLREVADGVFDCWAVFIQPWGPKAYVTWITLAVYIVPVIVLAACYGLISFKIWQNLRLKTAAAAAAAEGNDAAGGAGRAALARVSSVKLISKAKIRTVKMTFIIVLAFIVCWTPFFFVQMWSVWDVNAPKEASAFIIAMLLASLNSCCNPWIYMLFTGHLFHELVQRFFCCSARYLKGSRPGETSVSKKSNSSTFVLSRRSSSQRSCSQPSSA
Method in brief: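 Rat uterine membranes (0.2 mg; DES-primed day before) incubated 1 h at 25° with [3H]-oxytocin (10^-9 M) and compound (10^-9 to 10^-5 M) in 100 mM Tris-HCl pH 8.0, 5 mM MgCl2, 1 mM EDTA, 0.1% BSA. Filter-bound radioactivity counted; nonspecific with 5×10^-6 M oxytocin; IC50 reported.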

| IC50 [3] [nM] | IC50 [4] [nM] | IC50 [5] [nM] | Structure (SMILES) | ED (3-fold) [1] [mg/kg] | ED50 [2] [mg/kg] |
| --- | --- | --- | --- | --- | --- |
| – | – | – | COc1cc(NC(=O)c2ccccc2C)ccc1C(=O)N1CCCC(CC(=O)N2CCN(C)CC2)c2cc(Cl)ccc21 (centres unmarked) [Example 63, 5-[(4-Methyl-1-piperazinyl)carbonylmethyl]-7-chloro-1-[2-methoxy-4-(2-methylbenzoylamino)benzoyl]-2,3,4,5-tetrahydro-1H-benzoazepine] | 3.2 | 3.4 |
| 120 | 12 | 1000 | COc1cc(NC(=O)c2ccccc2Cl)ccc1C(=O)N1CCCC(OCCSc2ccncc2)c2cc(Cl)ccc21 (centres unmarked) [Example 139, 5-[2-(4-Pyridyl)thioethoxy]-7-chloro-1-[2-methoxy-4-(2-chlorobenzoylamino)benzoyl]-2,3,4,5-tetrahydro-1H-benzoazepine] | – | – |
| 54 | 5 | 225 | CNC(=O)N1CCN(CCC2CCCN(C(=O)c3ccc(NC(=O)c4ccccc4Cl)cc3OC)c3ccc(Cl)cc32)CC1 (centres unmarked) [Example 148, 5-[2-(4-Methylaminocarbonyl-1-piperazinyl)ethyl]-7-chloro-1-[2-methoxy-4-(2-chlorobenzoylamino)benzoyl]-2,3,4,5-tetrahydro-1H-benzoazepine] | – | – |
| 91 | 14 | 849 | COc1cc(NC(=O)c2ccccc2Cl)ccc1C(=O)N1CCCC(OCCS(=O)(=O)c2ncc[nH]2)c2cc(Cl)ccc21 (centres unmarked) [Example 145, 5-[2-(2-Imidazolyl)sulfonylethoxy]-7-chloro-1-[2-methoxy-4-(2-chlorobenzoylamino)benzoyl]-2,3,4,5-tetrahydro-1H-benzoazepine] | – | – |
| 2.6 | 8.5 | 41 | COc1cc(C(=O)N2CCCC(CC(=O)NCCN3CCOCC3)c3cc(Cl)ccc32)ccc1NC(=O)c1ccccc1Br (centres unmarked) [Example 164, 5-(2-Morpholinoethyl)aminocarbonylmethyl-7-chlorolo-[3-methoxy-4-(2-bromobenzoylamino)-benzoyl]-2,3,4,5-tetrahydro-1H-benzoazepine] | – | – |
| 5.5 | 8.5 | 177 | COc1cc(C(=O)N2CCCC(OCC(=O)NCCN3CCCCC3)c3cc(Cl)ccc32)ccc1NC(=O)c1ccccc1Br (centres unmarked) [Example 167, 5-[2-(1-Piperidinyl)ethyl]aminocarbonylmethoxy-7-chloro-1-[3-methoxy-4-(2-bromobenzoylamino)benzoyl]-2,3,4,5-tetrahydro-1H-benzoazepine] | – | – |
| 24 | 5 | 73 | COc1cc(NC(=O)c2ccccc2Cl)ccc1C(=O)N1CCCC(CC(=O)NCc2ccccn2)c2cc(Cl)ccc21 (centres unmarked) [Example 126, 5-(2-Pyridylmethyl)aminocarbonylmethyl-7-chlor-[2-methoxy-4-(2-chlorobenzoylamino)benzoyl]-2,3,4,5-tetrahydro-1H-benzoazepine] | – | – |
| 56 | 7.6 | 193 | COc1cc(NC(=O)c2ccccc2Cl)ccc1C(=O)N1CCCC(OCCSc2ncc[nH]2)c2cc(Cl)ccc21 (centres unmarked) [Example 141, 5-[2-(2-Imidazolyl)thioethoxy]-7-chloro-1-[2-methoxy-4-(2-chlorobenzoylamino)benzoyl]-2,3,4,5-tetrahydro-1H-benzoazepine] | – | – |
| 32 | 170 | 1790 | CCN(CC)CCOC1CCCN(C(=O)c2ccc(N3Cc4ccccc4C3=O)cc2)c2ccc(Cl)cc21 (centres unmarked) [Example 131, 5-(2-Diethylaminoethoxy)-7-chloro-1-[4-(1-oxoisoindolin-2-yl)benzoyl]-2,3,4,5-tetrahydro-1H-bezoazepine] | – | – |
| 55 | 9.9 | 354 | COc1cc(NC(=O)c2ccccc2Cl)ccc1C(=O)N1CCCC(OCC[S+]([O-])c2ncc[nH]2)c2cc(Cl)ccc21 (centres unmarked) [Example 144, 5-[2-(2-Imidazolyl)sulfinylethoxy]-7-chloro-1-[2-methoxy-4-(2-chlorobenzoylamino)benzoyl] 2,3,4,5-tetrahydro-1H-benzoazepine] | – | – |
| 7 | 1.9 | 55 | COc1cc(NC(=O)c2ccccc2Cl)ccc1C(=O)N1CCCC(CC(=O)NCCC2CCCN2C)c2cc(Cl)ccc21 (centres unmarked) [Example 155, 5-[2-(1-Methyl-2-pyrrolidinyl)ethyl]-aminocarbonylmethyl-7-chloro-1-[2-methoxy-4-(2-chlorobenzoylamino)benzoyl]-2,3,4,5-tetrahydro-1H-benzoazepine] | – | – |
| 13 | 22 | 200 | COc1cc(NC(=O)c2ccccc2Cl)ccc1C(=O)N1CCCC(OCC[S+]([O-])c2ccncc2)c2cc(Cl)ccc21 (centres unmarked) [Example 143, 5-[2-(4-Pyridyl)sulfinylethoxy]-7-chloro-1-[2-methoxy-4-(2-chlorobenzoylamino)benzoyl]-2,3,4,5-tetrahydro-1H-benzoazepine] | – | – |
| 5 | 3 | 233 | COc1cc(NC(=O)c2ccccc2Cl)ccc1C(=O)N1CCCC(OCCNC2CC2)c2cc(Cl)ccc21 (centres unmarked) [Example 138, 5-(2-Cyclopropylaminoethoxy)-7-chloro-1-[2-methoxy-4-(2-chlorobenzoylamino)benzoyl]-2,3,4,5-tetrahydro-1H-benzoazepine.cndot.hydrochloride] | – | – |
